# Test results as given in patent US6759430B2, “Piperidine and pyrrolidine derivatives comprising a nitric oxide donor for treating stress” (OxoN Medica Inc., priority 1998, dated 2004).
# Legend:
# [1] = in vivo blood pressure (mean arterial pressure) monitoring in anesthetized rats; design: species or system rat
# Experimental: (§1) Materials: Male Sprague-Dawley rats (250-300 g) were purchased from the Animal Care Facility of the Hebrew University and used in the rat aortic rings (RARs) relaxation studies in vitro and the blood pressure monitoring and cGMP studies in vivo.
# In the in vivo experiment, rats were anesthetized with an intraperitoneal injection of a combination of ketamine and xylazine (50 and 10 mg per kg, respectively). A catheter was placed in the right external jugular vein and introduced to the level of right atrium. A second arterial catheter was placed in the left carotid artery and introduced to the level of the ascending aorta. The tip of arterial catheter was connected to a pressure transducer which is connected to another electrical transducer connected to a computerized Experimetria system. Blood-pressure (mean arterial pressure=MAP) was recorded before (basal) and after drug administration. NO-TEMPO was injected through the venous catheter and induced a significant drop in MAP which lasts for 5 to 10 minutes. Values for basal MAP were 130±15 before and 60±10 mm Hg following a 1 mg injection of NO-TEMPO.
# rat aortic rings (RARs) [2] = test: in vitro induction of tolerance in rat aortic rings; type: cell-based; settings: for tolerance induction in vitro: RARs pre-exposed to 0.44 mM of the drug for 1 hr; for vaso-relaxant effect on rings before and after exposure to GTN: rings exposed to 0.44 mM GTN for 1 hr, FIGS. 4 and 5; for vaso-relaxant potency, control versus NO-TEMPO-pre-treated RARs: rings exposed to 0.44 mM NO-TEMPO, FIGS. 7 and 8
# Experimental: as §1
# In vitro induction of GTN tolerance: Aortic rings were treated as for the control studies except that rings were exposed to 0.44 mM GTN for 1 hr. At the end of the tolerance induction period, rings were washed every 15 min for the following hour. Attempted induction of tolerance to NO-TEMPO was performed under the same conditions as for GTN with rings exposed to 0.44 mM solution of NO-TEMPO. CCRC were constructed for NO-TEMPO and GTN. […] This conclusion is further supported by separately evaluating the vaso-relaxant effect of each drug on control and NO-TEMPO-pre-treated RARs.
# [3] = in vivo induction of tolerance, subcutaneous dosing; design: species or system rat; settings: subcutaneously 30 mg/kg t.i.d for three consecutive days
# rat aortic rings (RARs) [4] = test: in vitro vasorelaxation of epinephrine-contracted rat aortic rings; type: cell-based; settings: control RARs contracted with epinephrine 1 μM; FIGS. 2 and 3
# Experimental: as §1
# In vitro vasorelaxation: Thoracic aortae were removed following anesthesia with intraperitoneal injection of ketamine and xylazine (50 and 10 mg/kg, respectively). The paraadventetial tissue surrounding the vessel was carefully removed. Aortae were cut into rings of 4-5 mm and mounted onto the tissue path. The path buffer (Krebs-bicarbonate) was constantly gassed with carbogen and maintained at 37° C. The rings were preloaded under 2 g tension and equilibrated for 90 min with buffer changed every 15 min. After stabilization, the rings were contracted with epinephrine (1 μM). Commulative Concentration-Response Curves (CCRC) were constructed for NO-TEMPO, glyceryl trinitrate (GTN) and S-nitroso-N-acetylpenicillamine (SNAP). FIGS. 2 and 3 represent the vaso-relaxant effect of NO-TEMPO as compared to the conventional NO-donors GTN and SNAP.
# [5] = superoxide scavenging activity in vitro (photometric microassay, xanthine oxidase/hypoxanthine, ferricytochrome c reduction); type: biochemical; settings: inhibition of ferricytochrome c reduction; 0.003-3 mM tested; n=5
# Experimental: Assessment of superoxide scavenging activity in vitro
# The superoxide scavenging activity of TEMPO-4-mononitrate (0.003-3 mM) and reference compound superoxide dismutase (SOD, 200 U/ml), were determined using a photometric microassay in vitro (Laight et al., Environ. J. Toxicol. Pharmracol., 3, 65-68, 1997) developed from the assay of McCord & Fridovich (J. Biol. Chem., 244, 6059-55, 1969). The assay mixture consisted of (final concentration): 50 μl ferricytochrome c (100 μM); 10 μl xanthine oxidase (20 mU/ml); 20 μl hypoxanthine (100 μM); and 20 μl sample dissolved in isotonic phosphate (10 mM)-buffered saline (PBS, pH 7.4) to make a total volume of 100 μl in a 96-well plate. The reaction was conducted at room temperature and initiated by the addition of hypoxanthine. The increase in optical density (OD) at […] was measured over a 3 min period of 30 s intervals and initial reaction rates determined at least in triplicate.
# There was a linear relationship between the initial reaction rate and the concentration of xanthine oxidase (5-20 mU/ml) (r=0.9982, P<0.002, n=4). […] Xanthine oxidase at 20 mU/rml, which provided an initial reaction rate of 28.3±1.7 mOD/min (n=4), was adopted for subsequent inhibition studies (see McCord & Fridovich, 1969). The initial reaction rate was depressed by SOD (200 U/ml) by 95.3±1.1% (n=4, P<0.01) and by TEMPO-4-mononitrate (see FIG. 1).
# [6] = system: cGMP content in aortic tissue; test: vascular cGMP content after in vivo administration (RIA); design: species or system rat; settings: for effect on vascular cGMP compared to GTN: intravenously in equimolar doses
# Experimental: as §1
# Experiments were performed in anaesthetized rats as above. Following i.v. administration of NO-TEMPO (0.1, 0.2, 0.5 mg etc.,) the thorax was opened and the aorta removed immediately (within thirty seconds from the administration). After standard processing procedures, cGMP content in the vascular tissue was measured by Radioimmunoassay (RIA) using commercially available kits (i.e., Kit 500 TRK from Amersham).
Structure (SMILES),tolerance of the hypotensive effect on MAP following successive administration [1],tolerance induction in vitro (rat aortic rings (RARs) [2]),vaso-relaxant effect on rings before and after exposure to GTN (rat aortic rings (RARs) [2]),"vaso-relaxant potency, control versus NO-TEMPO-pre-treated RARs (rat aortic rings (RARs) [2])",tolerance induction in vivo [3],vaso-relaxant effect compared to conventional NO-donors GTN and SNAP (rat aortic rings (RARs) [4]),pIC50 value [5],"mean arterial pressure (MAP) following injection ([1]; 1 mg injection through venous catheter, basal MAP 130±15) [mm Hg]","hypotensive effects in vivo compared to GTN and SNAP ([1]; rat, in vivo)",increase in vascular cGMP ([6]; 1 mg i.v. versus basal),"cGMP content in aortic tissue ([6]; 1 mg i.v., aorta removed within thirty seconds, basal 46±10) [pmole/g tissue]",tolerance of the vascular cGMP effect ([6]; NO-TEMPO pre-treated rats),effect on cGMP content of vascular tissue ([6]; control rats),effect on vascular cGMP compared to GTN ([6]; control rats),"effect on vascular cGMP compared to GTN ([6]; control rats, listed as NO-TEMPO)"
"O=[N+]([O-])OCC(CO[N+](=O)[O-])O[N+](=O)[O-] [GTN, glyceryl trinitrate, reference compound]",attenuation to their effect on MAP develops,induces tolerance both to itself and to NO-TEMPO,development of GTN tolerance,no significant difference,does induce tolerance to itself and to NO-TEMPO,–,–,–,–,–,–,–,–,–,–
"CC1(C)CC(O[N+](=O)[O-])CC(C)(C)N1[O] [TEMPO-4-mononitrate, 4-Nitrato-2,2,6,6-tetramethylpiperidinyloxy, free radical]",lack of tolerance development,does not induce tolerance neither to itself nor to GTN,significant difference,no significant difference,does not induce tolerance either to itself or to GTN,superiority of NO-TEMPO to both of these NO-donors,2.89±0.03,60±10,superiority of this drug to both GTN and SNAP,4-5 fold,197±18,lack of tolerance induction,significant increase,compared well with that of GTN,superior activity as compared to GTN
"CC(=O)N[C@H](C(=O)O)C(C)(C)SN=O (racemic) [SNAP, S-nitroso-N-acetylpenicillamine, reference compound]",attenuation to their effect on MAP develops,–,–,–,–,–,–,–,–,–,–,–,–,–,–
